Experimental findings from US12053511B2, “Cystatin C and Cystatin 9 to treat gut inflammation caused by thermal injury” (priority 2016, dated 2024) are described below.

This experiment deals with NDM-1 Kp. As to the kind of experiment: LD90 NDM-1 Kp pneumonia murine model, survival. The conditions noted are these: colistin 20 or 1.25 mg/kg/day, days 4 and 5 PI. The class given is in vivo, Balb/c mice. An excerpt: To establish the optimal CST route, timing, and dosage regimen against MDR NDM-1 Kp-induced pneumonia, Balb/c mice (n=10-20 mice/gp) were infected with an i.n. LD90 and treated at various times and doses as depicted in Table 1. Doses included i.n. and/or i.p. single rCST9, rCSTC or a combination of rCST9 and rCSTC. Mice that were infected with NDM-1 Kp but were not treated served as controls. rCST treatments by routes, doses, or as a combined therapy were studied to select an optimal regimen.
Evaluate optimal timing and dosage of rCST-9 and/or PEG-rCST9 administration post-infection. Balb/c mice (n=10-20 mice/gp) were intranasally (i.n.) infected with approximately 1.82×10^8 CFU/mouse of Kp 2146 (as established hereinabove) then treated i.n. or i.p. with rCST9, human recombinant cystatin C (rCSTC) or a combination of rCST9 and rCSTC as depicted in Table 1. Kp infected alone served as controls. […] Therefore, as a comparative control to rCST9, the inventors evaluated the effectiveness of rCSTC against pneumonia using the same doses of 50 and/or 500 pg/mouse.
The potential for rCST9/rCSTC treatment to extend the period before successful antibiotic intervention was initiated was determined. For these evaluations, suboptimal doses of colistin were used to determine the extent of protection afforded by rCSTs as well as to minimize side effects/toxicity caused by this antibiotic (n=10 mice/gp). Doses, timing, and route of colistin were chosen based on efficacy studies of colistin in a mouse model of severe, established MDR pneumonia or a very low dose of colistin then adjusted to suboptimal levels for this study. LD90 NDM-1 Kp-challenged mice were treated with the rCST9/rCSTC 3 d i.p. treatment and then given 2 doses of colistin at 20 mg/kg/day or 1.25 mg/kg/day on day 4 and 5 PI.
Mouse model of pneumonia and CST treatments. Eight-week old female Balb/c mice weighing between 21 and 24 grams (Jackson Laboratories) were housed in an Association for Assessment and Accreditation for Laboratory Animal Care (AAALAC)-approved housing facility and permitted to adjust to their environment for 7 d prior to procedures, receiving free access to food and water throughout the study. All procedures were approved by the University of Texas Medical Branch IACUC and performed humanely with minimal suffering. […] One hour PI, mice were administered an i.n. dose of rCST9/rCSTC (50 pg of each) and then, this group of mice was given an i.p. injection of rCST9/rCSTC (500 pg of each) 3 d PI. A parallel group of infected mice received only a single i.p. dose of rCST9/rCSTC, PEG-rCST9/rCSTC (500 pg of each), or PEG-rCST9 (500 pg) alone 3 d PI. NDM-1-Kp infected mice alone or uninfected mice served as controls. Survival was observed up to 15 days post treatment. Additional groups (n=4 mice/group) of infected and CST-treated mice were euthanized at selected time points (24 h, 72 h, 5 and/or 10 d PI) to harvest lungs. Additional groups were treated with i.n. rCSTs (50 pg of each) as described above but they were euthanized at 30 min, 1 h and 3 h to collect lungs for the quantification of lipid peroxidase by-product, known as malondialdehyde (MDA), as described below.
Additional groups of mice (n=15 mice/group) were treated with the optimal CST treatment regimens of an i.n. dose of rCST9/rCSTC (50 pg of each), followed by an i.p. injection of rCST9/rCSTC (500 pg of each) 3 d PI or the single i.p. dose of rCST9/rCSTC (500 pg of each). At 4 d PI, mice were given 2 separate i.p. injections of colistin (JHP Pharmaceuticals, LLC; colistimethate sodium; 20 mg/kg/mouse or 1.25 mg/kg/day) 8 h apart for 2 d.

Consider colistin [reference compound], for which the “survival protection compared to rCST monotherapy” value was “neither of the antibiotic doses surpassed protection afforded by the rCST monotherapy”.
